Test results reported in patent US10654814B2, “Bicyclic hydroxamic acids useful as inhibitors of mammalian histone deacetylase activity” (KANCERA AB, priority 2015, dated 2020).
Read-outs that look alike come from different tables or passages of the source.

Columns and labels:
[1] = tested on: multiple myeloma cell line OPM-2; assay: Annexin V apoptosis assay (flow cytometry), OPM-2; assay type: cell-based; details: 72 hours, relative to 0.2% DMSO
From the text: (§1) Method for Measurement of Apoptosis
(§2) The Annexin A5 (or Annexin V) affinity assay provides a method to quantify the number of cells undergoing apoptosis. The assay uses the protein annexin A5 conjugated to fluorescein (FITC Annexin V) and the fluorescent dye propidium iodide (PI) to label early apoptotic (annexin V positive, PI negative) and necrotic/dead cells (annexin V positive, PI positive) quantified by flow cytometry. The annexin A5 protein binds to membrane surfaces containing negatively charged phoshpolipids (phosphatidylserine) which are exposed by apoptotic and dead cells, but not by normal cells. PI binds to nucleic acids in cells which have completely lost the integrity of their plasma membrane, i.e. necrotic cells.
(§3) Standard Annexin V assay protocol was followed (see e.g. http://www.biolegend.com/pop_pdf.php?id=5161 and application references therein). 10,000 cells of each cell line were cultured in 400 μl of medium in 48 well plates. Compounds from 10 mM DMSO stock solutions were added to cells (DMSO content was 0.2%) and incubated for 48 or 72 hours followed by addition of FITC-Annexin V (BioLegend) and PI staining solution (BD Biosciences). The cells were analyzed by flow cytometry, at least 4,000 single cells were analyzed. Compounds were tested either individually at four different concentrations (1, 2.5, 5 and 10 μM) or in combination with 1 μM dexamethasone.
(§4) Annexin V assay results for one compound of the invention (Example 1) with and without 1 μM dexamethasone for the multiple myeloma cell lines OPM-2 and U266 are given in Table 6. In Table 6, the % apoptosis values with compound(s) present are relative to the absence of compounds (only 0.2% DMSO present).

[2] = tested on: multiple myeloma cell line U266; assay: Annexin V apoptosis assay (flow cytometry), U266; assay type: cell-based; details: 72 hours, relative to 0.2% DMSO
From the text: as §1, §2, §3, §4

[3] = tested on: U266 (multiple myeloma) cells; assay: CellTiter-Blue cell viability assay, U266; assay type: cell-based; details: Homo sapiens, U-266; 72 hours of treatment
Experimental: (§5) Method for Measurement of Cell Viability
(§6) The CellTiter-Blue® Cell Viability Assay (Promega) provides a homogeneous, fluorometric method for estimating the number of viable cells present in multi-well plates. The assay uses the indicator dye resazurin to measure the metabolic capacity of cells. Viable cells retain the ability to reduce resazurin into resorufin, which is highly fluorescent.
(§7) Stock solutions (10 mM in DMSO) of compounds were serially diluted 1:2 in 11 concentrations. 50 nL/well (10 mM compound stock in DMSO) was acoustically dispensed in 384-well assay plates with an acoustic dispenser (EDC Biosystems ATS-100AV). Final starting concentration in the assay was 20 μM (0.2% DMSO) for test compounds. The following cell-lines (and origin) have been primarily used: PaCa2 (pancreatic), U266 (multiple myeloma), AMO-1 (plasmacytoma), and MDA-MB-231 (breast adenocarcinoma). PBMCs (peripheral blood mononuclear cells) from healthy donors were used as control cells. Cells were seeded in assay plates (384-well black/clear, Greiner #781091) pre-dispensed with compounds, 25 μL/well, and cultured for 72 hours. After 72 hours, Celltiter Blue reagent (Promega # G8081) was diluted 1:10 with PBS and then added to wells (5 μL/well). The plates were incubated for 2 hours following addition of reagent. The plates were read in an EnVision fluorescence reader (PerkinElmer) with Ex544 nm/Em590 nm. Results were calculated as % cell viability compared to background (cells treated with 0.2% DMSO).

HDAC6 = HDAC6 (Homo sapiens (Human), UniProt Q9UBN7); assay: HDAC6 in vitro enzymatic assay (fluorescence); assay type: biochemical
In short: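 Fluorogenic HDAC substrate reactions contained assay buffer, BSA and compound, followed by developer. Fluorescence was read at ex 360/em 460 nm. Compounds were tested as 11-point 1:3 dilutions from a top of 200 μM for HDAC1, 2 and 3, and from 2 μM for HDAC6, in duplicate.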

[4] = tested on: PBMCs (peripheral blood mononuclear cells) from healthy donors; assay: CellTiter-Blue cell viability assay, healthy PBMC; assay type: cell-based; details: 72 hours of treatment
Experimental: as §5, §6, §7

[5] = tested on: AMO-1 (plasmacytoma) cells; assay: CellTiter-Blue cell viability assay, AMO-1; assay type: cell-based; details: Homo sapiens, AMO1; 72 hours of treatment
Experimental: as §5, §6, §7

HDAC3 = HDAC3 (Homo sapiens (Human), UniProt O15379); assay: HDAC3 in vitro enzymatic assay (fluorescence); assay type: biochemical; details: Table 4 selectivity profiling
Experimental: (§8) Biological Tests Method for Measurement of Enzymatic Activity of HDACs Materials & Methods
(§9) All Examples were tested in HDAC1,2,3,6 and 8 in vitro enzymatic assays. The assay principle is well known (Hauser et al. 2009, Bradner et al. 2010) and all necessary reagents like enzymes, substrates, developer and reference compounds are commercially available (see e.g. BPS Biosciences http://www.bpsbioscience.com/). Stock solutions (10 mM in DMSO) of compounds were serially diluted 1:3 in 11 concentrations with a top concentration of 200 μM for HDAC1,2,3 and 2 μM for HDAC6 and HDAC8. The enzymatic reactions were conducted in a mixture containing assay buffer, bovine serum albumin, HDAC substrate, and a test compound. After enzymatic reaction, developer was added and after an additional incubation time, fluorescence intensity was measured at an excitation wavelength of 360 nm and an emission wavelength of 460 nm. All experiments were performed in duplicate.

HDAC1 = HDAC1 (Homo sapiens (Human), UniProt Q13547); assay: HDAC1 in vitro enzymatic assay (fluorescence); assay type: biochemical; details: Table 4 selectivity profiling
Experimental: as §8, §9

[6] = tested on: MDA-MB-231 (breast adenocarcinoma) cells; assay: CellTiter-Blue cell viability assay, MDA-MB-231; assay type: cell-based; details: Homo sapiens, 72 hours of treatment
Experimental: as §5, §6, §7

PaCa2 (pancreatic) cells = assay: CellTiter-Blue cell viability assay, PaCa2; assay type: cell-based; details: PaCa-2; 72 hours of treatment
Experimental: as §5, §6, §7

HDAC2 = HDAC2 (Homo sapiens (Human), UniProt Q92769); assay: HDAC2 in vitro enzymatic assay (fluorescence); assay type: biochemical; details: Table 4 selectivity profiling
Experimental: as §8, §9

HDAC8 = HDAC8 (Homo sapiens (Human), UniProt Q9BY41); assay: HDAC8 in vitro enzymatic assay (fluorescence); assay type: biochemical; details: Table 4 selectivity profiling
Experimental: as §8, §9

[7] = Table 3, read-out: IC50 (nM) for inhibition of HDAC6
[8] = Table 4 selectivity profiling, read-out: IC50 (nM) HDAC6

Chain of HDAC8 (Q9BY41 whole entry): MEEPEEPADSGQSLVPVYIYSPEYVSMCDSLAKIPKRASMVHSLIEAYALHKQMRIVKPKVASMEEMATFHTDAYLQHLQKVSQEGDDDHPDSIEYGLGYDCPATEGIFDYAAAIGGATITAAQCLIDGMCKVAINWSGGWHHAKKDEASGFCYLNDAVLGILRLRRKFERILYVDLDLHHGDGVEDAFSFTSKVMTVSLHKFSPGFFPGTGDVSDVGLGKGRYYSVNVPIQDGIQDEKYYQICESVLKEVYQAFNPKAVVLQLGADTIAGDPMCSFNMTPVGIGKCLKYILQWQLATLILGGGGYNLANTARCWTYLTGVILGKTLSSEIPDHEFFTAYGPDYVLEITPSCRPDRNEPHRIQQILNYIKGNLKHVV
Chain of HDAC2 (Q92769 whole entry): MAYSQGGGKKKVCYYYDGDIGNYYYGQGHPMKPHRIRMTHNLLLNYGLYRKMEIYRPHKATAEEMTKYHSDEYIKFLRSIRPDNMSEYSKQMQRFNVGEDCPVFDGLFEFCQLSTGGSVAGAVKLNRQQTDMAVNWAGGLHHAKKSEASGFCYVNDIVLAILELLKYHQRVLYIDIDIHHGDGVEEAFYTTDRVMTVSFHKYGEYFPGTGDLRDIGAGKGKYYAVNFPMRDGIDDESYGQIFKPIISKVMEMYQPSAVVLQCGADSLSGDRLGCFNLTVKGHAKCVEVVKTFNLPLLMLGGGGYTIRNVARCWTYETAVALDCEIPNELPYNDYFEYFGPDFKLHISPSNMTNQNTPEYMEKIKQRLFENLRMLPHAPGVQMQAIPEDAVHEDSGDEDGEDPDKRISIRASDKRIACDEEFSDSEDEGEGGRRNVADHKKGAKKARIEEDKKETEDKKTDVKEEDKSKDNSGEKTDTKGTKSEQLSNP
Chain of HDAC1 (Q13547 whole entry): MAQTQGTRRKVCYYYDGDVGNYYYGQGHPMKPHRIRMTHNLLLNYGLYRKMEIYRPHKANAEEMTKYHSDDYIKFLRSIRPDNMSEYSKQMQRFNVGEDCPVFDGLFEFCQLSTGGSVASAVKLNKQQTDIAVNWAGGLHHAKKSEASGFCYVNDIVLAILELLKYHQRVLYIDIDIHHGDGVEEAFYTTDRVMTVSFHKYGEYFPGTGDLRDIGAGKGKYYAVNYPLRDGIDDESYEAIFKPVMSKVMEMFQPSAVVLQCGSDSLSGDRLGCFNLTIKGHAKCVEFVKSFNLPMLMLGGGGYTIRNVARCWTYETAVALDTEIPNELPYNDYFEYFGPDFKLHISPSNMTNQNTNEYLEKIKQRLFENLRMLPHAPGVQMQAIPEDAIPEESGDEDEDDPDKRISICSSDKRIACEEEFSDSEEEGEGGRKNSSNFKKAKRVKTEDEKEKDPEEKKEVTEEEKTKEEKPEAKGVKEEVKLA
Chain of HDAC6 (Q9UBN7 whole entry): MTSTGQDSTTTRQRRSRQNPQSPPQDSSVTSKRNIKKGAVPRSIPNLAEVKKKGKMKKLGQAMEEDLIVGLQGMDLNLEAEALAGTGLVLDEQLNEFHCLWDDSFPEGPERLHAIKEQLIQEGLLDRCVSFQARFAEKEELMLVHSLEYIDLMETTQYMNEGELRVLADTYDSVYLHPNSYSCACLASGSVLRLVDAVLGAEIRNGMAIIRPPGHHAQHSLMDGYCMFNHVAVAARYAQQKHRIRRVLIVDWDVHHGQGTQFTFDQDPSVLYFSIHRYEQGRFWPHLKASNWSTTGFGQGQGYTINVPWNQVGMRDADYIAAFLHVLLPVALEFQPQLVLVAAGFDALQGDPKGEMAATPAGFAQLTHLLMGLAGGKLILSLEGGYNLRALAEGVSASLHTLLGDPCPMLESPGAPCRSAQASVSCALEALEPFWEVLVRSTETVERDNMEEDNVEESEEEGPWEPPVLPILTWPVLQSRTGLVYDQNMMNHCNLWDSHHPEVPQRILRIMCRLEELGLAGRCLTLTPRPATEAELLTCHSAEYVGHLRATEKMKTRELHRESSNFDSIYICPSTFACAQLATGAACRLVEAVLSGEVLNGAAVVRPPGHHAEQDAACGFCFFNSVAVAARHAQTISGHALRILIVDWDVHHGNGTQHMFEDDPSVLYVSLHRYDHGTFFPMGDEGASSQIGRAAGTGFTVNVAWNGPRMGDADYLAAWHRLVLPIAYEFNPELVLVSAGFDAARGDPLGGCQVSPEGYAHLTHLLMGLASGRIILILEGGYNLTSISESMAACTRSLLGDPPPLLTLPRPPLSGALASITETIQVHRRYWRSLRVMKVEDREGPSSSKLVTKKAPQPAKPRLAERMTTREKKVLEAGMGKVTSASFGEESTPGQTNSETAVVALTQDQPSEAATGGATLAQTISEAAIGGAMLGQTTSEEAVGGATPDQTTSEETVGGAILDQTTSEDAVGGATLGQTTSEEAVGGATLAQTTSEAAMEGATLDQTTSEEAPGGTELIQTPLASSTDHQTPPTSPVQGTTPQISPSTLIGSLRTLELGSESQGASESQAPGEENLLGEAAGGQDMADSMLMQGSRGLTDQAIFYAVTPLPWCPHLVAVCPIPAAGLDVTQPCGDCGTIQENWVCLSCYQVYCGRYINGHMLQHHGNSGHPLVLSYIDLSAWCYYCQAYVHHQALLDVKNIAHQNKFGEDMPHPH
Chain of HDAC3 (O15379 whole entry): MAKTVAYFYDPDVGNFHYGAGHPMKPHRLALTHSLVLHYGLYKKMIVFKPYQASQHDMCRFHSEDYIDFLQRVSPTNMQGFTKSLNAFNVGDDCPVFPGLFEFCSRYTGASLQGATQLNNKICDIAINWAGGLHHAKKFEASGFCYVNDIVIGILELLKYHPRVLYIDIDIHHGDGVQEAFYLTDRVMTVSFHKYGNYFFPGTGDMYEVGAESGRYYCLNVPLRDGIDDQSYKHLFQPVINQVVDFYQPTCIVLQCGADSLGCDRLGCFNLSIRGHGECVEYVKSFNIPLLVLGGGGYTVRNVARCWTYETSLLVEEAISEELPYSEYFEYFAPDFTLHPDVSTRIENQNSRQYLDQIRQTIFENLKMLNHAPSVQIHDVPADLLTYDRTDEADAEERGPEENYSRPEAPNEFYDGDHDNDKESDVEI
Chain of HDAC3 (Q9Y618 395-489 partner): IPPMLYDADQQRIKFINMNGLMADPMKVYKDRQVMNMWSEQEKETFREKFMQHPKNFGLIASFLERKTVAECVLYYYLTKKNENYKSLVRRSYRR

Compound | IC50 [3] | IC50 (HDAC6; [7]) | IC50 (HDAC6; [8]) | IC50 [5] | IC50 (HDAC3) | IC50 (HDAC1) | IC50 [6] | IC50 (HDAC2) | IC50 (HDAC8) | IC50 [4] | IC50 (PaCa2 (pancreatic) cells) | further results
C[C@@H]1C[C@H]2[C@@H]3CCC4=CC(=O)C=C[C@]4(C)[C@@]3(F)[C@@H](O)C[C@]2(C)[C@@]1(O)C(=O)CO [DEX, dexamethasone, reference compound] | – | – | – | – | – | – | – | – | – | – | – | % apoptosis OPM-2 ([1]; 1 μM DEX alone): 35%; % apoptosis U266 ([2]; 1 μM DEX alone): 42%
CC(C)c1ccc(-c2nc3cc(C(=O)NO)ccc3o2)cc1 [Example 1, N-Hydroxy-2-[4-(1-methylethyl)phenyl]-1,3-benzoxazole-5-carboxamide] | 0.62 µM | 26 nM | 26 nM | 0.39 µM | 1700 nM | 4000 nM | 0.65 µM | 13000 nM | 1200 nM | > 20 µM | 0.98 µM | % apoptosis OPM-2 ([1]; 1 μM Ex. 1 alone): 3%; % apoptosis OPM-2 ([1]; 2.5 μM Ex. 1 alone): 37%; % apoptosis OPM-2 ([1]; 5 μM Ex. 1 alone): 38%; % apoptosis OPM-2 ([1]; 10 μM Ex. 1 alone): 59%; % apoptosis U266 ([2]; 1 μM Ex. 1 alone): 30%; % apoptosis U266 ([2]; 2.5 μM Ex. 1 alone): 59%; % apoptosis U266 ([2]; 5 μM Ex. 1 alone): 43%; % apoptosis U266 ([2]; 10 μM Ex. 1 alone): 88%
CC(C)(C)c1ccc(-c2nc3cc(C(=O)NO)ccc3o2)cc1 [Example 4, 2-(4-tert-butylphenyl)-N-hydroxy-1,3-benzoxazole-5-carboxamide] | 0.49 µM | 5 nM | 5 nM | 0.38 µM | 410 nM | 1100 nM | 0.81 µM | 19000 nM | 1000 nM | > 20 µM | 0.75 µM | –
O=C(NO)c1ccc2oc(-c3ccc(OC(F)(F)F)cc3)nc2c1 [Example 9, N-hydroxy-2-[4-(trifluoromethoxy)phenyl]-1,3-benzoxazole-5-carboxamide] | 0.91 µM | – | 38 nM | 0.9 µM | 1700 nM | 6000 nM | 1.4 µM | 76000 nM | 800 nM | > 20 µM | 1.9 µM | –
O=C(NO)c1ccc2oc(-c3ccc(-c4ccccc4F)cc3)nc2c1 [Example 21, 2-(2′-Fluorobiphenyl-4-yl)-N-hydroxy-1,3-benzoxazole-5-carboxamide] | 0.94 µM | 28 nM | 28 nM | 0.64 µM | 1800 nM | 5600 nM | 1.1 µM | > 200000 nM | 700 nM | > 20 µM | 1.2 µM | –
COc1ccc(-c2ccc(-c3nc4cc(C(=O)NO)ccc4o3)cc2)cn1 [Example 27, N-hydroxy-2-[4-(6-methoxypyridin-3-yl)phenyl]-1,3-benzoxazole-5-carboxamide] | 0.89 µM | – | 3 nM | 0.62 µM | 820 nM | > 200000 nM | 3.1 µM | > 200000 nM | > 2000 nM | > 20 µM | 0.81 µM | –
COc1ncccc1-c1ccc(-c2nc3cc(C(=O)NO)ccc3o2)cc1 [Example 28, N-hydroxy-2-[4-(2-methoxypyridin-3-yl)phenyl]-1,3-benzoxazole-5-carboxamide] | 0.62 µM | – | 28 nM | 0.38 µM | 1800 nM | 5600 nM | 0.75 µM | 28000 nM | 700 nM | > 20 µM | 1 µM | –
CC(C)c1ccc(Nc2nc3cc(C(=O)NO)ccc3o2)cc1 [Example 43, N-hydroxy-2-{[4-(1-methylethyl)phenyl]amino}-1,3-benzoxazole-5-carboxamide] | 1.1 µM | – | 51 nM | 0.68 µM | 3500 nM | 5100 nM | 0.37 µM | > 200000 nM | 200 nM | > 20 µM | 1.7 µM | –

More lines, main results first:

IC50 [3] | IC50 (HDAC6; [7]) | IC50 (HDAC6; [8]) | IC50 [5] | IC50 (HDAC3) | IC50 (HDAC1) | IC50 [6] | IC50 (HDAC2) | IC50 (HDAC8) | Compound | IC50 [4] | IC50 (PaCa2 (pancreatic) cells) | further results
0.49 µM | 13 nM | 3 nM | 0.41 µM | 500 nM | 900 nM | 0.4 µM | 5500 nM | 28 nM | CC(C)c1ccc(-c2nc3cc(C(=O)NO)ccc3s2)cc1 [Example 75, N-Hydroxy-2-[4-(1-methylethyl)phenyl]-1,3-benzothiazole-5-carboxamide] | > 20 µM | 1.3 µM | –
0.48 µM | – | 22 nM | 0.34 µM | 930 nM | 1800 nM | 1.8 µM | 9400 nM | 410 nM | CC(C)(C)c1ccc(-c2nc3cc(C(=O)NO)ccc3s2)cc1 [Example 77, 2-(4-tert-butylphenyl)-N-hydroxy-1,3-benzothiazole-5-carboxamide] | > 20 µM | 1.4 µM | –
0.42 µM | 37 nM | 14 nM | 0.36 µM | 10000 nM | 26000 nM | 1.1 µM | 14000 nM | 1100 nM | CC(C)c1ccc(-c2cc3ccc(C(=O)NO)cc3s2)cc1 [Example 88, N-Hydroxy-2-[4-(1-methylethyl)phenyl]-1-benzothiophene-6-carboxamide] | > 20 µM | 0.82 µM | –
0.43 µM | 55 nM | 26 nM | 0.44 µM | 90000 nM | 100000 nM | 0.81 µM | 90000 nM | > 2000 nM | CC(C)c1ccc(-c2cc3cc(C(=O)NO)ccc3s2)cc1 [Example 89, N-Hydroxy-2-[4-(1-methylethyl)phenyl]-1-benzothiophene-5-carboxamide] | > 20 µM | 0.68 µM | –
0.58 µM | 7 nM | – | 0.46 µM | – | – | 1.2 µM | – | – | CC(C)c1ccc(-c2cc3ccc(C(=O)NO)cc3o2)cc1 [Example 112, N-Hydroxy-2-[4-(1-methylethyl)phenyl]-1-benzofuran-6-carboxamide] | > 20 µM | 0.89 µM | –
